What was measured:
Experiment in all cases: relative viability (nuclei count vs DMSO), 5 days (fraction); higher = more cells survive
Linsitinib + Trametinib = compound: C[C@]1(O)C[C@@H](c2nc(-c3ccc4ccc(-c5ccccc5)nc4c3)c3c(N)nccn32)C1 [Linsitinib] + CC(=O)Nc1cccc(-n2c(=O)n(C3CC3)c(=O)c3c(Nc4ccc(I)cc4F)n(C)c(=O)c(C)c32)c1 [Trametinib] (partner 0.02 µM)
In short: (§1)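 Relative viability equals treated-well nuclei counts divided by vehicle-well nuclei counts. Counts came from 4× images of lung cancer cell lines grown in 1536-well plates for 5 days after pin-tool dosing on the day after seeding. Dosing used one drug alone or a fixed anchor-drug dose plus five library-drug doses (not always all listed) in √10 steps, and values are medians of duplicate plates.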

Linsitinib + Dasatinib = compound: C[C@]1(O)C[C@@H](c2nc(-c3ccc4ccc(-c5ccccc5)nc4c3)c3c(N)nccn32)C1 [Linsitinib] + Cc1nc(Nc2ncc(C(=O)Nc3c(C)cccc3Cl)s2)cc(N2CCN(CCO)CC2)n1 [Dasatinib] (partner 0.075 µM)
In short: as §1

Linsitinib + Decitabine = compound: C[C@]1(O)C[C@@H](c2nc(-c3ccc4ccc(-c5ccccc5)nc4c3)c3c(N)nccn32)C1 [Linsitinib] + Nc1ncn([C@H]2C[C@H](O)[C@@H](CO)O2)c(=O)n1 [Decitabine] (partner 2 µM)
In short: as §1

Linsitinib + Vorinostat = compound: C[C@]1(O)C[C@@H](c2nc(-c3ccc4ccc(-c5ccccc5)nc4c3)c3c(N)nccn32)C1 [Linsitinib] + O=C(CCCCCCC(=O)Nc1ccccc1)NO [Vorinostat] (partner 1 µM)
In short: as §1

Cell Line | relative viability (Linsitinib + Trametinib; first compound 0.01 µM) | relative viability (Linsitinib + Trametinib; first compound 0.03162 µM) | relative viability (Linsitinib + Trametinib; first compound 0.1 µM) | relative viability (Linsitinib + Trametinib; first compound 0.3162 µM) | relative viability (Linsitinib + Trametinib; first compound 1 µM) | relative viability (Linsitinib + Dasatinib; first compound 0.01 µM) | relative viability (Linsitinib + Dasatinib; first compound 0.03162 µM) | relative viability (Linsitinib + Dasatinib; first compound 0.1 µM) | relative viability (Linsitinib + Dasatinib; first compound 0.3162 µM) | relative viability (Linsitinib + Dasatinib; first compound 1 µM) | relative viability (Linsitinib + Decitabine; first compound 0.01 µM) | relative viability (Linsitinib + Decitabine; first compound 0.03162 µM) | relative viability (Linsitinib + Decitabine; first compound 0.1 µM) | relative viability (Linsitinib + Decitabine; first compound 0.3162 µM) | relative viability (Linsitinib + Decitabine; first compound 1 µM) | relative viability (Linsitinib + Vorinostat; first compound 0.01 µM) | relative viability (Linsitinib + Vorinostat; first compound 0.03162 µM) | relative viability (Linsitinib + Vorinostat; first compound 0.1 µM) | relative viability (Linsitinib + Vorinostat; first compound 0.3162 µM) | relative viability (Linsitinib + Vorinostat; first compound 1 µM)
NCI-H1915 | 0.292 | 0.332 | 0.292 | 0.308 | 0.268 | 0.306 | 0.351 | 0.299 | 0.331 | 0.234 | 0.272 | 0.312 | 0.266 | 0.247 | 0.263 | 0.547 | 0.51 | 0.528 | 0.46 | 0.394
NCI-H1944 | 0.395 | 0.465 | 0.381 | 0.356 | 0.346 | 0.224 | 0.237 | 0.196 | 0.236 | 0.162 | 0.426 | 0.53 | 0.422 | 0.398 | 0.341 | 0.508 | 0.674 | 0.537 | 0.45 | 0.317
NCI-H1975 | 0.396 | 0.336 | 0.331 | 0.308 | 0.272 | 0.37 | 0.349 | 0.331 | 0.241 | 0.235 | 0.375 | 0.452 | 0.376 | 0.34 | 0.363 | 0.752 | 0.614 | 0.748 | 0.575 | 0.632
NCI-H1993 | 0.46 | 0.494 | 0.398 | 0.476 | 0.504 | 0.645 | 0.584 | 0.509 | 0.738 | 0.475 | 0.646 | 0.564 | 0.473 | 0.506 | 0.499 | 0.936 | 0.737 | 0.781 | 0.286 | 0.644
NCI-H2009 | 0.275 | 0.266 | 0.256 | 0.307 | 0.242 | 0.285 | 0.262 | 0.274 | – | 0.2 | 0.36 | 0.4 | 0.366 | 0.359 | 0.396 | 0.725 | 0.699 | 0.796 | 0.58 | 0.669
NCI-H2023 | 0.487 | 0.6 | 0.479 | 0.206 | 0.293 | 0.472 | 0.373 | 0.528 | 0.29 | 0.218 | 0.213 | – | 0.239 | 0.196 | 0.243 | 0.71 | 0.327 | 0.903 | 0.196 | 0.398
NCI-H2085 | 0.557 | 0.644 | 0.503 | 0.449 | 0.514 | 0.275 | 0.257 | 0.22 | 0.246 | 0.23 | 0.525 | 0.59 | 0.509 | 0.528 | 0.618 | 0.778 | 0.707 | 0.791 | 0.8 | 0.681
NCI-H2087 | 0.197 | 0.204 | 0.183 | 0.15 | 0.191 | 0.756 | 0.917 | 0.819 | 0.549 | 0.624 | 0.275 | 0.387 | 0.257 | 0.259 | 0.267 | 0.68 | 0.74 | 0.702 | 0.693 | 0.795
NCI-H2126 | 0.568 | 0.552 | 0.533 | 0.509 | 0.473 | 0.596 | 0.649 | 0.527 | 0.273 | 0.27 | 0.6 | 0.675 | 0.574 | 0.544 | 0.577 | 0.855 | 0.8 | 0.767 | 0.451 | 0.514
NCI-H2170 | 0.948 | 0.906 | 0.849 | – | 0.89 | 0.56 | 0.569 | 0.519 | 0.409 | 0.488 | 0.445 | 0.528 | 0.461 | – | 0.468 | 0.771 | 0.771 | 0.753 | – | 0.696
NCI-H2342 | 0.788 | 0.886 | 0.791 | 0.777 | 0.729 | 0.307 | 0.306 | 0.306 | 0.353 | 0.298 | 0.765 | 0.78 | 0.732 | 0.688 | 0.75 | 0.689 | 0.707 | 0.764 | 0.727 | 0.756
NCI-H2347 | 0.277 | 0.274 | 0.303 | 0.287 | 0.418 | 0.3 | 0.339 | 0.317 | – | 0.3 | 0.644 | 0.668 | 0.629 | 0.591 | 0.614 | 0.677 | 0.583 | 0.591 | 0.444 | 0.57
NCI-H2405 | 0.66 | 0.6 | 0.607 | 0.708 | 0.401 | 0.189 | 0.207 | 0.202 | 0.34 | 0.18 | 0.709 | 0.813 | 0.713 | 0.686 | 0.588 | 1.04 | 0.907 | 0.973 | 0.698 | 0.487
NCI-H3122 | 0.259 | 0.213 | 0.253 | – | 0.232 | 0.846 | 0.808 | 0.765 | 0.218 | 0.514 | 0.442 | 0.388 | 0.424 | – | 0.462 | 0.966 | 0.921 | 0.98 | – | 0.702
PC-3 [JPC-3] | 0.691 | 0.766 | 0.668 | 0.591 | 0.545 | 1 | 0.912 | 1.06 | 0.991 | 0.98 | 0.822 | 0.902 | 0.91 | 0.77 | 0.814 | 0.78 | 0.784 | 0.843 | 0.492 | 0.571
PC-14 | 0.684 | 0.681 | 0.618 | 0.699 | 0.575 | 0.285 | 0.274 | 0.282 | 0.202 | 0.19 | 0.2 | 0.196 | 0.22 | 0.158 | 0.172 | 0.668 | 0.566 | 0.808 | 0.517 | 0.52
RERF-LC-KJ | 0.903 | 0.829 | 0.87 | 0.731 | 0.771 | 0.75 | 0.964 | 0.697 | 0.543 | 0.454 | 0.726 | 0.651 | 0.622 | 0.599 | 0.665 | 0.552 | 0.608 | 0.649 | 0.293 | 0.455

From the supplement of paper PMC10307832
